Holding throughout (format): cell-based, human
The subject of data set [1] is U373 glioblastoma cells. Put plainly: MTT cytotoxicity assay of vanadocenes, U373 cells. The conditions noted are these: 24 h. The protocol: (§1) Human testicular cancer cell lines, Tera-2 (embryonal carcinoma) and Ntera-2 (pluripotent embryonal carcinoma) were obtained from the American Type Culture Collection (ATCC) (Rockeville, Md.) and propagated in T-25, T-75, or T-150 cm^2 tissue culture flasks (Corning Corp., Corning, N.Y.) in McCoy's 5A medium and Dulbecco's modified Eagle's medium respectively. Both media were supplemented with 10% fetal calf serum (FCS), 4 mM glutamine, 100 U/ml penicillin G, and […] streptomycin sulfate. All tissue culture reagents were obtained from Life Technologies Inc. (GIBCO-BRL), Gaithersburg, Md. Cell lines were cultivated for a minimum of two passages after thawing prior to experimentation. Other cell lines that were used in this study were the human B-lineage acute lymphoblastic leukemia (ALL) cell line NALM-6. Uckun, F. M., Evans, W. E., Forsyth, C. J., Waddick, K. G., Tuel-Ahlgren, L., Chelstrom, L. M., Burkhardt, A., Bolen, J., Myers, D. E. Biotherapy of B-cell precursor leukemia by targeting genistein to CD19-associated tyrosine kinase. Science (Washington DC) 267:886–91, 1995; T-lineage ALL cell line MOLT-3, Waurzyniak, B., Shneider, E. A., Tumer, N., Yanishevski, Y., Gunther, R., Chelstrom, L., Wendorf, H., Myers, D. E., Irvin, J. D., Messinger, Y., Ek, O., Zeren, T., Chandan-Langlie, M., Evans, W. E., Uckun, F. M. In vivo toxicity, pharmacokinetics, and antileukemic activity of TXU (anti-CD7)-pokeweed antiviral protein immunotoxin. Clinical Cancer Research 3:881–890, 1997; AML cell line HL-60, Perentesis, J. P., Waddick, K. G., Bendel, A. E., Shao, Y., Warman, B. E., Chandan-Langlie, M., and Uckun, F. M. Induction of apoptosis in multi-drug resistant andradiation-resistant acute myeloid leukemia cells by a recombinant fusion toxin directed against the granulocyte macrophage colony stimulating factor receptor. Clin. Cancer Res. 3:347–355, 1997; breast cancer cell lines MDA-MB-231 and BT-20, Uckun, F. M., Narla, R. K., Jun, X., Zeren, T., Venkatachalam, T., Waddick, K. G., Rostostev, A., Myers, D. E. Cytotoxic activity of EGF-genstein against breast cancer cells. Clin. Cancer Res. 4:901–912, 1998; glioblastoma cell lines U87 and U373, Narla, R. K., Liu, X., Myers, D. E., and Uckun, F. M. 4-(3′-Bromo-4′hydroxylphenyl)-amino-6,7-dimethoxyquinazoline (WHI-P154): A novel quinazoline derivative with potent cytotoxic activity against human glioblastoma cells. Clin. Cancer Res. 4:1405–1414, 1998.
(§2) MTT (3-[4,5-dimethyl thiazol-2-yl]-2,5-diphenyltetrazolium bromide)-based colorimetric assays were used for evaluation of the cytotoxicity of vanadocene compounds. Mosmann, T. Rapid colorimetric assay for cellular growth and survival: application to proliferation and cytotoxicity assays. J. Immunol. Methods, 65: 55–63, 1983. Briefly, cells were harvested with 0.125% (w/v) trypsin-0.02% EDTA (GIBCO-BRL) from exponential-phase maintenance cultures and centrifuged (300 g×5 min). After suspension and counting, cells were dispensed within triplicate 96-well tissue culture plates in 100 μl volumes. After 24 h incubation, the culture medium was discarded and replaced with 100 μl of fresh medium containing serial two-fold dilutions of drugs in medium to yield 1.9 μM to 250 μM. All compounds were reconstituted in DMSO to a concentration of 100 mM, and the stock solution was made fresh for each experiment. Control wells consisted of medium containing 0.25% of DMSO alone were used for solvent control. Culture plates were then incubated for 24 h before adding 10 μl of MTT solution (5 mg/ml in PBS) to each well. Wells containing only medium and MTT were used as controls for each plate. The tetrazolium/formazan reaction was allowed to proceed for 4 h at 37° C., and then 100 μl of the solubilization buffer (10% sodium dodecyl sulfate in 0.1% HCl) were added to all wells and mixed thoroughly to dissolve the dark blue formazan crystals. […]

The test system of data set [2] is Tera-2 testicular cancer cells. Put plainly: MTT cytotoxicity assay of vanadocenes, TERA-2 cells. The conditions noted are these: 24 h, 1.9-250 μM. As for the experimental part: as §1, §2
Data set [3] deals with Ntera-2 testicular cancer cells. Kind of data set: MTT cytotoxicity assay of vanadocenes, NTERA-2 cells. The note with it: 24 h, 1.9-250 μM. The protocol:
as §1, §2

Data set [4] has as its system NALM-6 B-lineage acute lymphoblastic leukemia cells. Put plainly: MTT cytotoxicity assay of vanadocenes, NALM-6 cells. The conditions noted are these: 24 h. The protocol: as §1
as §2, with “control.” for “control. Culture plates were then incubated for 24 h before adding 10 μl of MTT solution (5 mg/ml in PBS) to each well. Wells containing only medium and MTT were used as controls for each plate. The tetrazolium/formazan reaction was allowed to proceed for 4 h at 37° C., and then 100 μl of the solubilization buffer (10% sodium dodecyl sulfate in 0.1% HCl) were added to all wells and mixed thoroughly to dissolve the dark blue formazan crystals.”

The subject of data set [5] is Tera-2 testicular cancer cells. Kind of data set: Flow cytometric TUNEL apoptosis assay, TERA-2 cells. The conditions noted are these: 24 h, TUNEL-positive nuclei. The protocol: (§3) A flow cytometric two-color terminal […] transferase (TdT)-mediated digoxigenin-uridine triphosphate (dUTP) nick-end labeling assay (TUNEL) was employed to detect apoptotic nuclei. Gavrieli, Y., Sherman, Y., Ben-Sasson, S. A. Identification of programmed cell death in situ via specific labeling of nuclear DNA fragmentation. J. Cell Biol., 119: 493–501, 1992. Exponentially growing cells (10^6/ml) were incubated in DMSO alone (0.1%) or treated with 100 μM each of the 16 vanadocenes (VDB, VDC, VMDC, VDI, VDA, VDCN, VDOCN, VDSCN, VDSeCN, VDT, VDCO, VDFe, VD(acac), VDH, VD(dpy), and VD(dtc) in 0.1% DMSO for 24 h. Cells were washed in PBS, fixed in 4% paraformaldehyde in PBS for 15 min on ice. Following two washings in PBS, they were permeabilized with 0.1% Triton X-100 in 0.1% sodium citrate for 2 min on ice, and washed twice in PBS. Labeling of exposed 3′-hydroxyl (3′-OH) ends of fragmented nuclear DNA was performed using TdT and fluorescein isothiocyanate (FITC)-conjugated dUTP according to the manufacturer's recommendations (Boehringer Mannheim, Indianapolis, Ind.). Cells were counterstained with 5 μg/ml PI. Control samples included: (i) untreated cells; (ii) cells incubated with the reaction mixture without the TdT enzyme. Cells were analyzed with a FACS Calibur flow cytometer (Becton Dickinson, Mountain View, Calif.). Relative DNA content (PI) was detected with band-pass filter 585/42, and dUTP incorporation (FITC) was detected with band-pass filter 530/30. Fluorescence was compensated for in the acquisition software using single-label control samples. Data were acquired in listmode, gated to 10,000 events per sample, and analyzed with the use of CELLQuest software program (Becton Dickinson). […] Vanadocene-induced apoptosis is shown by an increase in the number of cells staining with FITC-dUTP. The M1 and M2 gates were used to demarcate non-apoptotic and apoptotic PI-counterstained cell populations, respectively. TUNEL assays were performed using two testicular cell lines Tera-2 and Ntera-2 following exposure to each of the 16 vanadocenes. In other experiments, MC540 binding (as an early marker of apoptosis) and PI permeability (as a marker of advanced stage apoptosis) were simultaneously measured in human cancer cells 24 hours after exposure to vanadocenes, as previously described. Uckun, F. M., Narla, R. K., Jun, X., Zeren, T., Venkatachalam, T., Waddick, K. G., Rostostev, A., Myers, D. E. Cytotoxic activity of EGF-genstein against breast cancer cells. Clin. Cancer Res. 4:901–912, 1998. Vassilev, A., Ozer, Z., Navara, C., Mahajan, S., and Uckun, F. M. Bruton's tyrosine kinase as an inhibitor of the Fas/CD95 death-inducing signaling complex. J. Biol. Chem. 274:1646–56, 1999. Whole cells were analyzed using a FACStar Plus flow cytometer (Becton Dickinson, San Jose, Calif.). All analyses were done using 488 nm excitation from an argon laser. MC540 and PI emissions were split with a 600 nm short pass dichroic mirror and a 575 nm band pass filter was placed in front of one photomultiplier tube to measure MC540 emission and a 635 nm band pass filter was used for PI emission.

Data set [6] deals with Ntera-2 testicular cancer cells. Kind of data set: Flow cytometric TUNEL apoptosis assay, NTERA-2 cells. The note with it: 24 h, TUNEL-positive nuclei. The protocol:
as §3

The next data set deals with HL-60 cells. Kind of data set: MTT cytotoxicity assay of oxovanadium(IV) compounds, HL-60. The note with it: 48 hr. The protocol:
(§4) The cytotoxicity of oxovanadium (W) complexes listed in Table 6 were tested against 9 different human cancer cell lines was performed using the MTT (3-[4,5-dimethylthiazol-2-yl]-2,5-diphenyl tetrazolium bromide) assay (Boehringer Mannheim Corp., Indianapolis, Ind.) as described previously (20). Briefly, exponentially growing tumor cells were seeded into a 96-well plate at a density of 4×10^4cells/well and incubated with medium containing the oxovanadium(IV) compounds concentrations ranging from 0.1 to 250 μM for 48 hours at 37° C. in a humidified 5% CO2 atmosphere. Triplicate wells were used for each treatment. To each well, 10 μl of MTT (0.5 mg/ml final concentration) was added and the plates were incubated at 37° C. for 4 hours to allow MTT to form formazan crystals by reacting with metabolically active cells . The formazan crystals were solubilized overnight at 37° C. in a solution containing 10% SDS in 0.01 M HCl. The absorbence of each well was measured in a microplate reader (Labsystems) at 540 nm and a reference wavelength of 690 nm. To translate the OD540 values into the number of live cells in each well, the OD540 values were compared to those on standard OD540—versus—cell number curves generated for each cell line. The percent survival was calculated using the formula: % survival=Live cell number[test]/Live cell number [control]×100. The IC50 values were calculated by non-linear regression analysis using an Graphpad Prism software version 2.0 (Graphpad Software, Inc., San Diego, Calif.).

In data set [7] the test system is 64cp5 testicular cancer cells. Kind of data set: Cytotoxic activity of oxovanadium(IV) compounds, 64cp5. The conditions noted are these: read-out: Cytotoxic Activity 64cp5. The protocol:
as §4

Data set [8] relates to Tera-2 testicular cancer cells. Put plainly: Cytotoxic activity of oxovanadium(IV) compounds, TERA-2. The conditions noted are these: read-out: Cytotoxic Activity TERA-2. As for the experimental part:
as §4

For data set [9], the system named is NTD1 testicular cancer cells. Put plainly: Cytotoxic activity of oxovanadium(IV) compounds, NTD1. The note with it: read-out: Cytotoxic Activity NTD1. As for the experimental part:
as §4

The test system of data set [10] is PC3 prostate cancer cells. Kind of data set: Cytotoxic activity of oxovanadium(IV) compounds, PC3. The conditions noted are these: read-out: Cytotoxic Activity PC3. The protocol:
as §4

The subject of data set [11] is HS-SULTAN multiple myeloma cells. Put plainly: MTT cytotoxicity assay of oxovanadium(IV) compounds, HS-SULTAN. The conditions noted are these: 48 hr. The protocol: as §4
Another data set has as its system BT20 breast cancer cells. Kind of data set: Cytotoxic activity of oxovanadium(IV) compounds, BT20. The conditions noted are these: read-out: Cytotoxic Activity BT20. As for the experimental part:
as §4

For data set [12], the system named is U266BL multiple myeloma cells. Kind of data set: MTT cytotoxicity assay of oxovanadium(IV) compounds, U266BL. The conditions noted are these: 48 hr. The protocol: as §4
Data set [13] deals with U373 glioblastoma cells. Kind of data set: Cytotoxic activity of oxovanadium(IV) compounds, U373. The conditions noted are these: read-out: Cytotoxic Activity U373. As for the experimental part: as §4
A further data set deals with MOLT-3 cells. Kind of data set: MTT cytotoxicity assay of oxovanadium(IV) compounds, MOLT-3. The note with it: 48 hr. As for the experimental part: as §4
Data set [14] deals with ARH77 multiple myeloma cells. Kind of data set: MTT cytotoxicity assay of oxovanadium(IV) compounds, ARH77. The conditions noted are these: 48 hr. The protocol:
as §4, with “Briefly, exponentially growing tumor cells were seeded into a 96-well plate at a density of 4×10^4cells/well and incubated with medium containing the oxovanadium(IV) compounds concentrations ranging from 0.1 to 250 μM for 48 hours at 37° C. in a humidified 5% CO2 atmosphere.” left out

The next data set relates to NALM-6 cells. Put plainly: MTT cytotoxicity assay of oxovanadium(IV) compounds, NALM-6. The note with it: 48 hr. As for the experimental part: as §4
Data set [15] relates to 833-K testicular cancer cells. Put plainly: Cytotoxic activity of oxovanadium(IV) compounds, 833-K. The note with it: read-out: Cytotoxic Activity 833-K. As for the experimental part:
as §4

Data set [16] has as its system HS445 Hodgkin's lymphoma cells. Kind of data set: MTT cytotoxicity assay of oxovanadium(IV) compounds, HS445. The note with it: 48 hr. The protocol: as §4

On to `[I-].[I-].[V+2].c1cc[cH-]c1.c1cc[cH-]c1` [VDI, VCp2I2], for which the IC50 with U373 glioblastoma cells [1] amounted to 5 µM; in data set [2], 221 µM; in data set [3] it was 204 µM; in data set [4] it was 18 µM. In addition, in [5], the “% Apoptosis at 100 μM TERA-2” value was 72 (71, 73) %. For the same compound, in [6], the “% Apoptosis at 100 μM NTERA-2” value is given as 57 (46, 69) %.
On to “(diaqua) (1,10-phenanthroline)oxovanadium(IV) sulfate [Compound 26]”, for which the IC50 is 3.2 ± 1.1 µM in the data set on HL-60 cells; 8.5 µM in [7]; > 100 µM in [8]; > 100 µM in data set [9]; 11.2 µM in [10]; 11.2 ± 2.2 µM in data set [11]. For the same compound, the IC50 in the data set on BT20 breast cancer cells was determined as 6.6 µM; in data set [12], 3.5 ± 0.5 µM; in the data set with U373 glioblastoma cells [13], 7.7 µM; in the data set on MOLT-3 cells, 2.7 ± 0.2 µM; in data set [14], 15.6 ± 3.2 µM; with NALM-6 cells it was 3.4 ± 0.2 µM. For the same compound, the IC50 was 12.8 µM in data set [15] and 6.3 ± 1.8 µM in data set [16].
For “bis(1,10-phenanthroline)sulfatooxovanadium(IV) [Compound 27]”, the IC50 was 4.6 ± 1.4 µM with HL-60 cells; 18.5 µM in data set [7]; 37.6 µM in data set [8]; > 100 µM in [9]; 10.8 µM in data set [10]; 4.4 ± 0.8 µM in [11]. For the same compound, the IC50 was found to be 7.2 µM in the data set on BT20 breast cancer cells; 2.2 ± 0.6 µM in data set [12]; 6.8 µM in the data set with U373 glioblastoma cells [13]; 1.4 ± 0.04 µM in the data set on MOLT-3 cells; 3.3 ± 0.8 µM in data set [14]; 0.97 ± 0.1 µM in the data set on NALM-6 cells. Further, the IC50 is 7.5 µM in data set [15] and 5.8 ± 1.2 µM in data set [16].

The values are drawn from patent US7091351B2, “Vanadium compounds for treating cancer” (Parker Hughes Institute, priority 1998, dated 2006).
